In PubChem BioAssay (NCI):
“And” between values parts separate entries of the source, which are not always exact repeats. Identical values can stand only once.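 Five compound concentrations were applied to cells in 96-well plates for 48 hours; endpoints were derived by simple linear interpolation of the resulting dose-response curve. GI50: concentration for 50% inhibition of growth. TGI marks complete inhibition of growth.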

Assays:
Assay in all cases: NCI-60 cell line screen, 48 h
SW-620 colon = system: SW-620 colon
UACC-62 melanoma = system: UACC-62 melanoma
U251 CNS = system: U251 CNS
OVCAR-3 ovarian = system: OVCAR-3 ovarian
KM12 colon = system: KM12 colon
A498 renal = system: A498 renal
NCI/ADR-RES ovarian = system: NCI/ADR-RES ovarian
PC-3 prostate = system: PC-3 prostate
MDA-MB-435 = system: MDA-MB-435
SR leukemia = system: SR leukemia

Structure (SMILES)	TGI (SW-620 colon)	TGI (UACC-62 melanoma)	TGI (U251 CNS)	TGI (OVCAR-3 ovarian)	TGI (KM12 colon)	TGI (A498 renal)	GI50 (NCI/ADR-RES ovarian)	TGI (NCI/ADR-RES ovarian)	GI50 (PC-3 prostate)	TGI (PC-3 prostate)	TGI (MDA-MB-435)	GI50 (U251 CNS)	GI50 (OVCAR-3 ovarian)	GI50 (KM12 colon)	GI50 (A498 renal)	TGI (SR leukemia)	GI50 (SW-620 colon)	GI50 (UACC-62 melanoma)	GI50 (MDA-MB-435)
CC1=C(C(=O)Nc2ccccc2C)C(c2ccc([N+](=O)[O-])cc2)C(C(=O)Nc2ccccc2C)=C(C)N1	> 100 µM	> 100 µM	> 100 µM	> 100 µM	> 100 µM	80.5 µM	–	–	–	–	–	–	–	–	–	–	–	–	–
C#CCN1CCN(C(=S)N/N=C(\C)c2ccccn2)CC1	7.3 µM and 4.27 µM	–	4.45 µM	1.4 µM and 1.2 µM	4.6 µM and 6.33 µM	5.47 µM and 5.21 µM	30.4 nM	1680 nM and 1560 nM	12.1 nM	2480 nM and 1450 nM	3.39 µM and 4.03 µM	12.6 nM	4.48 nM	400 nM	3.31 µM	2.36 µM	–	–	–
O=C(O)c1cc2ccccc2c(N=Nc2c([N+](=O)[O-])cc([N+](=O)[O-])cc2S(=O)(=O)O)c1O	> 100 µM	> 100 µM	> 100 µM	> 100 µM	> 100 µM	–	–	> 100000 nM	–	> 100000 nM	> 100 µM	–	–	–	–	–	–	–	–
FC(F)(F)c1ccc(C=NC23CC4CC(CC(C4)C2)C3)cc1	> 100 µM	> 100 µM	> 100 µM	> 100 µM	> 100 µM	> 100 µM	–	–	–	–	–	–	–	–	–	> 100 µM	–	–	–
CCCCCCCCCCCCCC/C(C(=O)OC)=C(/O)C(=O)OCC	> 100 µM	65.1 µM	69.4 µM	> 100 µM	59.8 µM	> 100 µM	–	–	–	–	–	–	–	–	–	–	–	–	–
N#C/C(=C\c1ccc(Br)cc1)n1nnc2cccc(F)c21	1.94 µM	3.46 µM	3.06 µM	2.15 µM	3.31 µM	4.23 µM	398 nM	2190 nM	943 nM	3170 nM	0.913 µM	1550 nM	861 nM	1510 nM	2.04 µM	–	475 nM	1.35 µM	295 nM
O=C(O)CCC1COc2ccccc2O1 (stereo unspecified)	> 10 µM	> 10 µM	> 10 µM	> 10 µM	> 10 µM	> 10 µM	–	> 10000 nM	–	> 10000 nM	> 10 µM	–	–	–	–	–	–	–	–
CC(=O)O[C@H]1[C@@H]2[C@@H]3[C@@H](C[C@H]1C)[C@@H](C)CO[C@@]1(C)CC/C=C(/C)C[C@@H]2O[C@@H]31	> 100 µM	> 100 µM	> 100 µM	> 100 µM	> 100 µM	> 100 µM	–	–	–	–	–	–	–	–	–	> 100 µM	–	–	–
NC(=O)c1csc(C2C=CC(CO)O2)n1 (stereo unspecified)	> 100 µM	> 100 µM	> 100 µM	> 10 µM	> 10 µM	> 100 µM	–	–	–	–	–	–	–	–	–	–	–	–	–
CC(=O)NNc1nc(C)c(C(/C=C/c2ccc(Cl)cc2)=N\NS(=O)(=O)c2ccc(C)cc2)s1	> 100 µM	> 100 µM	> 100 µM	> 100 µM	> 100 µM	> 100 µM	–	–	–	–	–	–	–	–	–	–	–	–	–
Cc1ccc(NS(=O)(=O)c2cc(C(C)(C)C)ccc2OCCOCCOCCOc2ccc(C(C)(C)C)cc2S(=O)(=O)Nc2ccc(C)cc2)cc1	> 100 µM	> 100 µM	> 100 µM	> 100 µM	> 100 µM	> 100 µM	–	–	–	–	–	–	–	–	–	–	–	–	–
CCC(C(=O)[O-])C(=O)[O-].CCC(C(=O)[O-])C(=O)[O-].N.N.NCCCCCN.[Pt+4].[Pt+4]	> 100 µM	> 100 µM	> 100 µM	> 100 µM	> 100 µM	> 100 µM	–	–	–	–	–	> 100000 nM	> 100000 nM	> 100000 nM	> 100 µM	–	> 100000 nM	38.3 µM	–
